Holding throughout (type): cell-based
For one assay, the target named is T1, human TLR9 (Homo sapiens, UniProt Q9NR96).
T1 construct: host or cells: HEK-Blue cells
T1 sequence (Q9NR96 26-1032): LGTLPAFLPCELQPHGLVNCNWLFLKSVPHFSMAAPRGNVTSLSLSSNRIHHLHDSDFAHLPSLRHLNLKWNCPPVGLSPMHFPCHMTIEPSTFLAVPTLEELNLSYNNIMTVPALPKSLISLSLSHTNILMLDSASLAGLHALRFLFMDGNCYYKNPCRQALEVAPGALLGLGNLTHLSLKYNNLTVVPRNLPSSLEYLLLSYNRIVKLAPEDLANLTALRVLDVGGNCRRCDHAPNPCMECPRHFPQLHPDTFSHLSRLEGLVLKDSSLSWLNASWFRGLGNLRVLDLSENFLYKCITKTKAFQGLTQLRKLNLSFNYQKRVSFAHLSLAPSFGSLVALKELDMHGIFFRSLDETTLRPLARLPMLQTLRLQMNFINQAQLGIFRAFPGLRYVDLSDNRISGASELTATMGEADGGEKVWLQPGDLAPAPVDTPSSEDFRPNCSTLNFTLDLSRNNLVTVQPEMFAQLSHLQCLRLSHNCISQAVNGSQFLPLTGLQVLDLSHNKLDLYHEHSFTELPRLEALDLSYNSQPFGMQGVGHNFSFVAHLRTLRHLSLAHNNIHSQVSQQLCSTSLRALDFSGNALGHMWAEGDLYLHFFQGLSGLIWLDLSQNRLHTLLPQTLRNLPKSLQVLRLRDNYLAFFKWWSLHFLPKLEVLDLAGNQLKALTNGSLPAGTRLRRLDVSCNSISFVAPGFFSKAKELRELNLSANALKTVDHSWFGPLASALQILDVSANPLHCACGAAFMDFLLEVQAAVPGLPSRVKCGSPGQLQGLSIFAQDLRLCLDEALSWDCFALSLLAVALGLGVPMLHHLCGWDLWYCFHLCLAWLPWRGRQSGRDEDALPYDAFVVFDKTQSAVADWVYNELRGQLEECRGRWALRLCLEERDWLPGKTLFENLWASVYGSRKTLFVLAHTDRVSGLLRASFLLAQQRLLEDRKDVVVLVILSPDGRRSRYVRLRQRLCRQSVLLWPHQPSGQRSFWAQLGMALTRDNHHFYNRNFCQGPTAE
Put plainly: TLR9 inhibition reporter assay (HEK-Blue SEAP reporter, ODN2006 stimulation). The settings on record: HEK-Blue cells overexpressing human TLR9, SEAP reporter, ODN2006 5 nM, 22 hour incubation. In short, it runs like this: (§1)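 Dose–response from 0.05 nM to 50 μM was run in HEK-Blue human TLR7, TLR8 and TLR9 reporter cells. After 30 min at room temperature with compound, ligand was added (TLR7 gardiquimod 7.5 μM; TLR8 R848 15.9 μM; TLR9 ODN2006 5 nM) and SEAP measured next day, at 22 h.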

The next assay deals with T2, human TLR8 (Homo sapiens, UniProt Q9NR97).
T2 construct: host or cells: HEK-Blue cells
T2 sequence (Q9NR97 27-1041): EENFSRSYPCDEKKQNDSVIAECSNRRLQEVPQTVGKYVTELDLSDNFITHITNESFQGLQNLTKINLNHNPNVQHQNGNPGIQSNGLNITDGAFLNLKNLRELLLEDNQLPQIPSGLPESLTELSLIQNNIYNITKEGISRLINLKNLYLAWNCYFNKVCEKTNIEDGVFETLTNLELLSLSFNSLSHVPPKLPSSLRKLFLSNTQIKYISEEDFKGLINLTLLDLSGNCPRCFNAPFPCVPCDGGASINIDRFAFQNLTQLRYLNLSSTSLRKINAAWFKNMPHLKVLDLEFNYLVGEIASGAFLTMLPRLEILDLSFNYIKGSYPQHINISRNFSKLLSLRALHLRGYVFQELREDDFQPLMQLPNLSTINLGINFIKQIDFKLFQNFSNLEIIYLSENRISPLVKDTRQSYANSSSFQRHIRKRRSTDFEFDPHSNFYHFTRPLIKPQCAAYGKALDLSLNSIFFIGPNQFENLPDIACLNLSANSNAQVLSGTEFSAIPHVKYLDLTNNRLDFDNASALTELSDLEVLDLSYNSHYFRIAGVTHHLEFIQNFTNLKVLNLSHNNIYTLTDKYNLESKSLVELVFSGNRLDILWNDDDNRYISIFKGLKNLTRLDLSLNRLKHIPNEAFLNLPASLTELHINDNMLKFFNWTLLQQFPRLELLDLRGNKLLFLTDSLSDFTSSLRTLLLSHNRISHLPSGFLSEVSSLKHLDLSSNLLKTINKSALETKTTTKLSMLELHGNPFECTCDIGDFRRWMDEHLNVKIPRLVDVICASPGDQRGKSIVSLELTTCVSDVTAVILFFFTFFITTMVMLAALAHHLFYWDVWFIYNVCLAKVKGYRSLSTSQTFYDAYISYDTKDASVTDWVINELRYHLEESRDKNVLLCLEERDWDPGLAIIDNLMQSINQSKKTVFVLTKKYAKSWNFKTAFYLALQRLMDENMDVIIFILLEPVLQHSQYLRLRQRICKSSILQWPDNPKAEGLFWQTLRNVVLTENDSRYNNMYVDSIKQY
Briefly: TLR8 inhibition reporter assay (HEK-Blue SEAP reporter, R848 stimulation). Conditions: HEK-Blue cells overexpressing human TLR8, SEAP reporter, R848 15.9 μM, 22 hour incubation. In short, it runs like this: as §1

For a further assay, the target named is T3, human TLR7 (Homo sapiens, UniProt Q9NYK1).
T3 construct: host or cells: HEK-Blue cells
T3 sequence (Q9NYK1 27-1049): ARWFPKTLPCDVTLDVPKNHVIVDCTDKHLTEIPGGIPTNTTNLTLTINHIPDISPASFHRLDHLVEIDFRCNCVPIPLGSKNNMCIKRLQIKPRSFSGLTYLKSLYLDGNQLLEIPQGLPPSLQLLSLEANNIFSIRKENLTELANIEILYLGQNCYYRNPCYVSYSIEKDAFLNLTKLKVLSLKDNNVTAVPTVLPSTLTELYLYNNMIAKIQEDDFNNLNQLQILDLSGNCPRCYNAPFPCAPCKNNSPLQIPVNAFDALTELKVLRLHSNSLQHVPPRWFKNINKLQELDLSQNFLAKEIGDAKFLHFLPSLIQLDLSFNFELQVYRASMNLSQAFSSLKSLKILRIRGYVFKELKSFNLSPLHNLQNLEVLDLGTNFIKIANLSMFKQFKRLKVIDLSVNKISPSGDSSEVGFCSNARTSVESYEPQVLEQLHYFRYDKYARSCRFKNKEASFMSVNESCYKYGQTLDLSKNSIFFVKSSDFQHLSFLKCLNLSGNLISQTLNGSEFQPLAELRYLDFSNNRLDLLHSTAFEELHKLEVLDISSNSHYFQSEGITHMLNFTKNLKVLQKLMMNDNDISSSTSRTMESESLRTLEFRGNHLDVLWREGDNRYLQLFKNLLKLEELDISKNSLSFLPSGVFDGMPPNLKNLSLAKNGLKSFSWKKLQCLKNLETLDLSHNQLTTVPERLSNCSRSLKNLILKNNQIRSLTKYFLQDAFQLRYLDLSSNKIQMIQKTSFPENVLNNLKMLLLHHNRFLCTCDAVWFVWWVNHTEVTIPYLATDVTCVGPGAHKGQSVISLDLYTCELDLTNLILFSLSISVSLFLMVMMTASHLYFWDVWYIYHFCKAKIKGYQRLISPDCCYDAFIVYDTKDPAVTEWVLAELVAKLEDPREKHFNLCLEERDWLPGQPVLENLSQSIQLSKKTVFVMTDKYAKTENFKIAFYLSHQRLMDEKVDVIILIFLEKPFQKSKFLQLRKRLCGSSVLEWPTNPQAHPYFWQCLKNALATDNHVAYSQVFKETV
Put plainly: TLR7 inhibition reporter assay (HEK-Blue SEAP reporter, gardiquimod stimulation). The settings on record: HEK-Blue cells overexpressing human TLR7, SEAP reporter, gardiquimod 7.5 μM, 22 hour incubation. In short, it runs like this:
as §1

pIC50: −log10 of the molar value.

As for `Cc1c(-c2[nH]c3ccc(C4CCN(CC(C)(C)O)CC4)c(F)c3c2C(C)C)cn(C)c(=O)c1Cl` [Example 327, 3-chloro-5-(4-fluoro-5-(1-(2-hydroxy-2-methylpropyl)piperidin-4-yl)-3-isopropyl-1H-indol-2-yl)-1,4-dimethylpyridin-2(1H)-one], the pIC50 is 5.48 on human TLR9, 8.80 on human TLR8 and 8.22 at human TLR7.
The matching figures for `COc1cc(-c2[nH]c3ccc(C4CCN(C5COC5)CC4)cc3c2C(C)C)cn(C)c1=O` [Example 202, 5-(3-isopropyl-5-(1-(oxetan-3-yl)piperidin-4-yl)-1H-indol-2-yl)-3-methoxy-1-methylpyridin-2(1H)-one]: 5.25, 7.87 and 7.95.
The matching figures for `CC(C)c1c(-c2ccc(=O)n(C(C)C)c2)[nH]c2ccc(C3CCNCC3)cc12` [Example 16, 1-isopropyl-5-(3-isopropyl-5-(piperidin-4-yl)-1H-indol-2-yl)pyridin-2(1H)-one]: 6.04, 6.76 and 6.52.
The matching figures for `Cc1cc(-c2[nH]c3ccc(C4CCN(C)CC4)cc3c2C(C)C)cn(CC(F)F)c1=O` [Example 266, 1-(2,2-difluoroethyl)-5-(3-isopropyl-5-(1-methylpiperidin-4-yl)-1H-indol-2-yl)-3-methylpyridin-2(1H)-one]: 5.35, 7.80 and 7.94.
Turning to `CC(C)c1c(-c2cc(-c3cccc(C#N)c3)c(=O)n(C)c2)[nH]c2ccc(C3CCNCC3)cc12` [Example 56, 3-(5-(3-isopropyl-5-(piperidin-4-yl)-1H-indol-2-yl)-1-methyl-2-oxo-1,2-dihydropyridin-3-yl)benzonitrile], the pIC50 on human TLR9 was 6.39; at human TLR8, 7.31; against human TLR7 it was 7.86.
The matching figures for `Cc1c(-c2[nH]c3ccc(C4CCNCC4)cc3c2C(C)C)cn(C)c(=O)c1-c1cccnc1` [Example 65, 5-(3-isopropyl-5-(piperidin-4-yl)-1H-indol-2-yl)-1,4-dimethyl-[3,3′-bipyridin]-2(1H)-one]: 5.51, 7.12 and 6.01.
On to `CC(C)c1c(-c2cc(-c3cccnc3)c(=O)n(C)c2)[nH]c2ccc(C3CCN(CC(=O)N(C)C)CC3)cc12` [Example 169, 2-(4-(3-isopropyl-2-(1-methyl-2-oxo-1,2-dihydro-[3,3′-bipyridin]-5-yl)-1H-indol-5-yl)piperidin-1-yl)-N,N-dimethylacetamide], for which the pIC50 on human TLR9 is 5.74; on human TLR8, 8.21; at human TLR7, 7.92.
The matching figures for `Cc1cc(-c2[nH]c3ccc(C4CCN(C(=O)C[C@H](C)O)CC4)cc3c2C(C)C)cn(C)c1=O` [Example 305, (S)-5-(5-(1-(3-hydroxybutanoyl)piperidin-4-yl)-3-isopropyl-1H-indol-2-yl)-1,3-dimethylpyridin-2(1H)-one]: no more than 4.30, 7.01 and 7.96.
The corresponding values for `Cc1cc(-c2[nH]c3ccc(C4CCN(C(=O)CN(C)C)CC4)cc3c2C(C)C)cn(Cc2ccccc2)c1=O` [Example 284, 1-benzyl-5-(5-(1-(dimethylglycyl)piperidin-4-yl)-3-isopropyl-1H-indol-2-yl)-3-methylpyridin-2(1H)-one] are 5.78, 7.66 and 8.19.
The corresponding values for `COc1cc(-c2[nH]c3ccc(C4CCNCC4)cc3c2C(C)C)c(C)n(C)c1=O` [Example 28, 5-(3-isopropyl-5-(piperidin-4-yl)-1H-indol-2-yl)-3-methoxy-1,6-dimethylpyridin-2(1H)-one] are 5.92, 6.76 and 6.68.
Take `Cc1c(-c2[nH]c3ccc(C4CCN(CC(=O)N(C)C)CC4)cc3c2C(C)C)cn(C)c(=O)c1C#N` [Example 147, 2-(4-(2-(5-cyano-1,4-dimethyl-6-oxo-1,6-dihydropyridin-3-yl)-3-isopropyl-1H-indol-5-yl)piperidin-1-yl)-N,N-dimethylacetamide]: the pIC50 was 5.30 on human TLR9, 8.32 at human TLR8 and 7.25 on human TLR7.
The matching figures for `Cc1cc(-c2[nH]c3ccc(C4CCN(CC(=O)N5CC[C@H](O)C5)CC4)cc3c2C(C)C)cn(C)c1=O` [Example 119, (S)-5-(5-(1-(2-(3-hydroxypyrrolidin-1-yl)-2-oxoethyl)piperidin-4-yl)-3-isopropyl-1H-indol-2-yl)-1,3-dimethylpyridin-2(1H)-one]: 5.94, 7.83 and 7.94.
The matching figures for `CCc1cc(-c2[nH]c3ccc(C4CCNCC4)cc3c2C(C)C)cn(CC)c1=O` [Example 68, 1,3-diethyl-5-(3-isopropyl-5-(piperidin-4-yl)-1H-indol-2-yl)pyridin-2(1H)-one]: 5.27, 8.01 and 8.07.

Source of the values: US11447466B2, “Substituted indole compounds useful as inhibitors of TLR7/8/9” (BRISTOL-MYERS SQUIBB COMPANY, priority 2017, dated 2022).
